Values of other authors as cited in US20190105343A1, “Treatment of Skin Conditions and Diseases Associated with Microbial Biofilms” (Bioclenz PH LLC, priority 2016, published 2019).
≈ marks a conversion by molar mass, not a printed value.

Legend:
[1] = system: aerobic and anaerobic gram-positive bacteria; settings: broth and biofilm cultures
Pseudomonas aeruginosa = settings: pH 5.0-6.0
[2] = aqueous solutions at 37° C.

For `CCCCCCCCCCCC(=O)OCC(O)CO` (stereo not shown) [GML, glycerol monolaurate], the bactericidal activity [1] is given as “bactericidal”, the killing (Pseudomonas aeruginosa) is given as “killed” and the solubility limit [2] is given as 100 µg/mL (≈ 364 µM). The susceptibility (Gram-negative anaerobes) was “susceptible”.
